Patent US11285133B2, “2- or 3-imidazolines as carbapenemases inhibitors” (priority 2017, dated 2022)
Marks after values point to notes of the source that are not given here.

Key:
Format in all cases: biochemical
OXA-48 Enzyme = OXA-48 Enzyme (Klebsiella pneumoniae, UniProt Q6XEC0); experiment: Imipenem hydrolysis monitored by UV absorbance slope, OXA-48 enzyme; settings: for OXA-48 Enzyme Inhibition at 10 μM: 10 μM compound; for inhibition at 10 µM: read-out: OXA-48 Enzyme Inhibition at 10 μM
Method: (§1) These tests are conducted by comparing UV absorbance slope measurements of impenem alone, and then imipenem with the concerned 3-imidazolines at given concentrations in the presence of the enzyme. It was thus possible to monitor the hydrolysis of imipenem. Lower the value of the slope, the higher is the percentage of inhibition of the enzyme.

KPC Enzyme = KPC Enzyme (Klebsiella pneumoniae, UniProt Q9F663); experiment: Imipenem hydrolysis monitored by UV absorbance slope, KPC enzyme; settings: for KPC Enzyme percentage of inhibition at 10 μM: 10 μM compound, starred cells in the IC50 column, ND = Not Detectable (at 10 μM); for inhibition at 10 µM: read-out: KPC Enzyme percentage of inhibition at 10 μM
Chain of KPC Enzyme (Q9F663 25-293, looked up): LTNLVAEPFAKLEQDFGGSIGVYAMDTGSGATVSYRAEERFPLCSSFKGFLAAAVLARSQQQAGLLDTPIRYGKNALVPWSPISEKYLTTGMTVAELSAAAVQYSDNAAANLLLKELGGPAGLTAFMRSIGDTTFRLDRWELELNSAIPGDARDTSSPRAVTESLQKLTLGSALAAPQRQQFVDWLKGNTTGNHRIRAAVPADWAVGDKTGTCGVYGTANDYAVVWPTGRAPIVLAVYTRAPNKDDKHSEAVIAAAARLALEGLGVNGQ
Method: as §1

NDM-1 Enzyme = NDM-1 Enzyme (Klebsiella pneumoniae, UniProt C7C422); experiment: Imipenem hydrolysis monitored by UV absorbance slope, NDM-1 enzyme; settings: 10 μM compound, starred cells in the IC50 column
Chain of NDM-1 Enzyme (C7C422 29-270, looked up, species assumed): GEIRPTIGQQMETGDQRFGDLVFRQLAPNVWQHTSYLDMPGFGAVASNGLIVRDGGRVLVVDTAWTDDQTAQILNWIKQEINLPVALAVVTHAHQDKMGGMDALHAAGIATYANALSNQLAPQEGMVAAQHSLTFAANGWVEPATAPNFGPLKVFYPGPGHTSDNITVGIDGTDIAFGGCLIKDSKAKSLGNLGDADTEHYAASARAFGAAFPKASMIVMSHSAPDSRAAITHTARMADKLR
Method: as §1

Chain of OXA-48 Enzyme (Q6XEC0 23-265 limits assumed): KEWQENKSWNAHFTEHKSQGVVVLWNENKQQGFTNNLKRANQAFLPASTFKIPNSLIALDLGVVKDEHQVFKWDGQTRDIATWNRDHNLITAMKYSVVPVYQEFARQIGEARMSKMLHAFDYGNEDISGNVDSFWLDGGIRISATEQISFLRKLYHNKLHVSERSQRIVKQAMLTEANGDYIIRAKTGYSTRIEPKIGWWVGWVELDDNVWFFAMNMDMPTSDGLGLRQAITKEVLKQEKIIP

| OXA-48 Enzyme Inhibition at 10 μM (OXA-48 Enzyme) | inhibition at 10 µM (OXA-48 Enzyme) | SMILES | also measured |
| --- | --- | --- | --- |
| Not Detectable |  | CC1C(c2ccccc2)=NC(c2ccccc2)N1c1ccc(Br)cc1 (centres unmarked) [Compound 15] |  |
|  | 38% | C/C(=N\c1ccc(Br)cc1)C1(c2ccccc2)N=C(c2ccccc2)N(c2ccc(Br)cc2)C1C (centres unmarked) [Compound 27] |  |
| Not Detectable |  | CC1C(c2ccccc2)=NC(c2ccccc2)N1c1ccc(I)cc1 (centres unmarked) [Compound 14] |  |
| Not Detectable |  | COc1ccc(C2=NC(c3ccc(OC)cc3)N(c3ccc(OC)cc3)C2C)cc1 (centres unmarked) [Compound 7] | KPC Enzyme percentage of inhibition at 10 μM (KPC Enzyme): 18%* |
| Not Detectable |  | CC1C(c2ccccc2)=NC(c2ccccc2)N1c1ccccc1 (centres unmarked) [Compound 13] | KPC Enzyme percentage of inhibition at 10 μM (KPC Enzyme): 23%* |
| 50% |  | CC1C(c2ccc(Cl)cc2)=NC(c2ccc(Cl)cc2)N1c1ccc(Cl)cc1 (centres unmarked) [Compound 19] |  |
| Not Detectable |  | CC1C(c2ccccc2)=NC(c2ccccc2)N1c1ccc(Cl)cc1 (centres unmarked) [Compound 16] | KPC Enzyme percentage of inhibition at 10 μM (KPC Enzyme): 18%* |
| Not Detectable |  | COc1ccc(N2C(C)C(c3ccc(Cl)cc3)=NC2c2ccc(Cl)cc2)cc1 (centres unmarked) [Compound 12] | inhibition at 10 µM (KPC Enzyme): 50% |
| Not Detectable |  | COc1ccc(C2=NC(c3ccccc3)N(c3ccccc3)C2C)cc1 (centres unmarked) [Compound 8] | KPC Enzyme percentage of inhibition at 10 μM (KPC Enzyme): 23%* |
| Not Detectable |  | COc1ccc(C2=NC(c3ccc(OC)cc3)N(c3ccccc3)C2C)cc1 (centres unmarked) [Compound 9] | inhibition at 10 µM (KPC Enzyme): 40% |
|  | 9% | COc1ccc(C2N=C(c3ccccc3)C(C)N2c2ccc(I)cc2)cc1 (centres unmarked) [Compound 2] |  |
| Not Detectable |  | CC1C(c2ccc(Cl)cc2)=NC(c2ccc(Cl)cc2)N1c1ccccc1 (centres unmarked) [Compound 18] | KPC Enzyme percentage of inhibition at 10 μM (KPC Enzyme): 14%* |
|  | 36% | C/C(=N\c1ccc(Br)cc1)C1(c2ccc(Cl)cc2)N=C(c2ccc(Cl)cc2)N(c2ccc(Br)cc2)C1C (centres unmarked) [Compound 29] |  |
| Not Detectable |  | COc1ccc(C2N=C(c3ccccc3)C(C)N2c2ccc(Br)cc2)cc1 (centres unmarked) [Compound 6] | inhibition at 10 µM (NDM-1 Enzyme; read-out: NDM-1 Enzyme percentage of inhibition at 10 μM): 20% |
|  | 22% | C/C(=N\c1ccc(Cl)cc1)C1(c2ccccc2)N=C(c2ccccc2)N(c2ccc(Cl)cc2)C1C (centres unmarked) [Compound 26] |  |
|  | 19% | COc1ccc(C2N=C(c3ccccc3)C(C)N2c2ccc(C(F)(F)F)cc2)cc1 (centres unmarked) [Compound 5] |  |
| Not Detectable |  | COc1ccc(C2=NC(c3ccccc3)N(c3ccc(OC)cc3)C2C)cc1 (centres unmarked) [Compound 11] | NDM-1 Enzyme percentage of inhibition at 10 μM (NDM-1 Enzyme): 20%* |
| Not Detectable |  | COc1ccc(N2C(C)C(c3ccccc3)=NC2c2ccccc2)cc1 (centres unmarked) [Compound 17] | KPC Enzyme percentage of inhibition at 10 μM (KPC Enzyme): 17%* |
|  | 9% | COc1ccc(C2N=C(c3ccccc3)C(C)N2c2ccccc2)cc1 (centres unmarked) [Compound 1] |  |
|  | 38% | C/C(=N\c1ccccc1)C1(c2ccc(Cl)cc2)N=C(c2ccc(Cl)cc2)N(c2ccccc2)C1C (centres unmarked) [Compound 24] |  |
| Not Detectable |  | C/C(=N\c1ccccc1)C1(c2ccccc2)N=C(c2ccccc2)N(c2ccccc2)C1C (centres unmarked) [Compound 25] | inhibition at 10 µM (KPC Enzyme): 30% |
| Not Detectable |  | COc1ccc(C2N=C(c3ccccc3)C(C)N2c2ccc(Cl)cc2)cc1 (centres unmarked) [Compound 4] |  |
|  | 31% | C/C(=N\c1ccc(Cl)cc1)C1(c2ccc(Cl)cc2)N=C(c2ccc(Cl)cc2)N(c2ccc(Cl)cc2)C1C (centres unmarked) [Compound 28] |  |
|  | 11% | COc1ccc(C2N=C(c3ccccc3)C(C)N2c2ccc(OC)cc2)cc1 (centres unmarked) [Compound 3] |  |
